Experimental data published in patent US9339503B2, “Tetrahydro-quinazolinone derivatives as TANK and PARP inhibitors” (MERCK PATENT GMBH, priority 2012, dated 2016).

How the values were obtained:
[1] = target: T1, GST-tagged Tnks-1 (1023-1327 aa) (Homo sapiens, UniProt O95271); test: TNKS 1 activity ELISA (autoparsylation assay); format: biochemical; conditions: read-out: IC50 tankyrase 1 (ELISA assay)
T1 construct: GST-tagged Tnks-1 (1023-1327 aa, prepared in-house); made in house
Protocol: (§1) Biochemical Activity Testing of TNKS 1 and 2: Activity ELISA (Autoparsylation Assay)
(§2) For analysis of autoparsylation activity of TNKS 1 and 2 an activity ELISA was performed: In the first step GST tagged TNKS was captured on a Glutathione coated plate. Then the activity assay with biotinylated NAD was performed in the absence/presence of the compounds. During the enzymatic reaction GST tagged TNKS transferred biotinylated ADP-ribose to itself from biotinylated NAD as co-substrate. For the detection streptavidin-HRP conjugate was added that bound to the biotinylated TNKS and was thereby captured to the plates. The amount of biotinylated resp autoparsylated TNKS was detected with a luminescence substrate for HRP. The level of the luminescence signal correlated directly with the amount of autoparsylated TNKS and therefore with activity of TNKS.
(§3) The activity ELISA was performed in 384 well Glutathione coated microtiter plates (Express capture Glutathione coated plate, Biocat, Heidelberg, Germany). The plates were pre-equilibrated with PBS. Then the plates were incubated with 50 μl 20 ng/well GST-tagged Tnks-1 (1023-1327 aa, prepared in-house), respectively GST-tagged Tnks-2 (873-1166 aa, prepared in-house) in assay buffer (50 mM HEPES, 4 mM Mg-chloride, 0.05% Pluronic F-68, 2 mM DTT, pH 7.7) overnight at 4° C. The plates were washed 3 times with PBS-Tween-20. The wells were blocked by incubation at room temperature for 20 minutes with 50 μl blocking buffer (PBS, 0.05% Tween-20, 0.5% BSA). Afterwards the plates were washed 3 times with PBS-Tween-20. The enzymatic reaction was performed in 50 μl reaction solution (50 mM HEPES, 4 mM Mg-chloride, 0.05% Pluronic F-68, 1.4 mM DTT, 0.5% DMSO, pH 7.7) with 10 μM bio-NAD (Biolog, Life science Inst., Bremen, Germany) as co-substrate in the absence or presence of the test compound (10 dilution concentrations) for 1 hour at 30° C. The reaction was stopped by 3 times washing with PBS-Tween-20. For the detection 50 μl of 20 ng/μl Streptavidin, HRP conjugate (MoBiTec, Göttingen, Germany) in PBS/0.05% Tween-20/0.01% BSA were added and the plates were incubated for 30 minutes at room temperature. After three times washing with PBS-Tween-20 50 μl of SuperSignal ELISA Femto Maximum sensitivity substrate solution (ThermoFisherScientific (Pierce), Bonn, Germany) were added. Following a 1 minute incubation at room temperature luminescence signals were measured with an Envision multimode reader (Perkin Elmer LAS Germany GmbH) at 700 nm. The full value used was the inhibitor-free reaction. The pharmacological zero value used was XAV-939 (Tocris) in a final concentration of 5 μM. The inhibitory values (IC50) were determined using either the program Symyx Assay Explorer® or Condosseo® from GeneData.

[2] = target: T2, GST-tagged Tnks-2 (873-1166 aa) (Homo sapiens, UniProt Q9H2K2); test: TNKS 2 activity ELISA (autoparsylation assay); format: biochemical; conditions: read-out: IC50 tankyrase 2 (ELISA assay)
T2 construct: GST-tagged Tnks-2 (873-1166 aa, prepared in-house); made in house
Protocol: as §1, §2, §3

T2 sequence (Q9H2K2 873-1166): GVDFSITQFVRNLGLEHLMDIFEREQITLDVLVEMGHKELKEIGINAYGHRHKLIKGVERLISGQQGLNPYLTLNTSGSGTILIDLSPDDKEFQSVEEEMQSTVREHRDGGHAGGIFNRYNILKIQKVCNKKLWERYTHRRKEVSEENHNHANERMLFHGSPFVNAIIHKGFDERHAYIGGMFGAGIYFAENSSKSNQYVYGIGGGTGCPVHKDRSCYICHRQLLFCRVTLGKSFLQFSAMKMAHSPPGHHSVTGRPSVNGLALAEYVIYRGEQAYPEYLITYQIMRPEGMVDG
T1 sequence (O95271 1023-1327): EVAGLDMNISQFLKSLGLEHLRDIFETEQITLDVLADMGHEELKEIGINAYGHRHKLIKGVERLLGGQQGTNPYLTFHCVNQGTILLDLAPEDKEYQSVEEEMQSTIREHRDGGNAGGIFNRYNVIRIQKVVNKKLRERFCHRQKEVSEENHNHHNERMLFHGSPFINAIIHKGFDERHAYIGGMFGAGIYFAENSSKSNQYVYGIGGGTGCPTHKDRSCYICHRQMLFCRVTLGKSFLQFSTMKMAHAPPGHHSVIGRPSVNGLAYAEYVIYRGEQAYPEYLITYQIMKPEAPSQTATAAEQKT

Row | SMILES | IC50 [1] [nM] | IC50 [2] [nM]
1 | O=c1[nH]c(N2CCN(c3ccc(F)cc3)CC2)nc2c1CCCC2 [Compound A6, 2-[4-(4-Fluorophenyl)piperazin-1-yl]-5,6,7,8-tetrahydro-3H-quinazolin-4-one] | < 300 | < 300
2 | COc1cc(F)ccc1N1CCN(c2nc3c(c(=O)[nH]2)CCCC3)CC1 [Compound A36, 2-[4-(4-fluoro-2-methoxy-phenyl)piperazin-1-yl]-5,6,7,8-tetrahydro-3H-quinazolin-4-one] | < 300 | < 300
3 | COc1cccc(N2CCN(c3nc4c(c(=O)[nH]3)CCCC4)CC2)c1 [Compound A7, 2-[4-(3-Methoxyphenyl)piperazin-1-yl]-5,6,7,8-tetrahydro-3H-quinazolin-4-one] | < 300 | < 300
4 | COc1ccc(N2CCN(c3nc4c(c(=O)[nH]3)CCCC4)CC2)cc1 [Compound A3, 2-[4-(4-methoxy-phenyl)-piperazin-1-yl]-5,6,7,8-tetrahydro-3H-quinazolin-4-one] | < 300 | < 300
5 | N#Cc1ccccc1N1CCN(c2nc3c(c(=O)[nH]2)CCCC3)CC1 [Compound A33, 2-[4-(4-oxo-5,6,7,8-tetrahydro-3H-quinazolin-2-yl)piperazin-1-yl]benzonitrile] | < 300 | < 300
6 | COc1ccccc1N1CCN(c2nc3c(c(=O)[nH]2)CCCC3)CC1 [Compound A12, 2-[4-(2-Methoxyphenyl)piperazin-1-yl]-5,6,7,8-tetrahydro-3H-quinazolin-4-one] | < 300 | < 300
7 | O=c1[nH]c(N2CCN(c3ccccc3Cl)CC2)nc2c1CCCC2 [Compound A9, 2-[4-(2-Chlorophenyl)piperazin-1-yl]-5,6,7,8-tetrahydro-3H-quinazolin-4-one] | < 300 | < 300
